pIC50: −log10 of the molar value. Read-outs that look alike come from different tables or passages of the source.
Legend:
[1] = molecular target: PDGFR-β (Homo sapiens (Human), UniProt P09619); assay: PDGFR-β tyrosine kinase inhibitory action (HTRF KinEASE-TK); type: biochemical; conditions: PDGFR-β enzyme 1 ng/μL, 30° C. for 30 minutes; read-out: PDGF-β IC50
Procedure, shortened: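 Recombinant PDGFR-β at 1 ng/μL final with TK substrate-3-biotin in a substrate solution containing 0.6 μM ATP; buffer 50 mM HEPES pH 7.0, 5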

[2] = molecular target: TEL-PDGFRβ fusion gene transfected cells (Ba/F3); assay: Suppression of proliferation of TEL-PDGFRβ fusion gene transfected Ba/F3 cells; type: cell-based, human; conditions: TEL-PDGFRβ expressing Ba/F3 cells, 72 hours, final concentration 0.1 to 10,000 nM; read-out: PDGFR β/BaF3 proliferation inhibition (IC50)
Sequence of TEL-PDGFRβ fusion gene transfected cells (Ba/F3) (P09619 33-1106 limits assumed, change not shown): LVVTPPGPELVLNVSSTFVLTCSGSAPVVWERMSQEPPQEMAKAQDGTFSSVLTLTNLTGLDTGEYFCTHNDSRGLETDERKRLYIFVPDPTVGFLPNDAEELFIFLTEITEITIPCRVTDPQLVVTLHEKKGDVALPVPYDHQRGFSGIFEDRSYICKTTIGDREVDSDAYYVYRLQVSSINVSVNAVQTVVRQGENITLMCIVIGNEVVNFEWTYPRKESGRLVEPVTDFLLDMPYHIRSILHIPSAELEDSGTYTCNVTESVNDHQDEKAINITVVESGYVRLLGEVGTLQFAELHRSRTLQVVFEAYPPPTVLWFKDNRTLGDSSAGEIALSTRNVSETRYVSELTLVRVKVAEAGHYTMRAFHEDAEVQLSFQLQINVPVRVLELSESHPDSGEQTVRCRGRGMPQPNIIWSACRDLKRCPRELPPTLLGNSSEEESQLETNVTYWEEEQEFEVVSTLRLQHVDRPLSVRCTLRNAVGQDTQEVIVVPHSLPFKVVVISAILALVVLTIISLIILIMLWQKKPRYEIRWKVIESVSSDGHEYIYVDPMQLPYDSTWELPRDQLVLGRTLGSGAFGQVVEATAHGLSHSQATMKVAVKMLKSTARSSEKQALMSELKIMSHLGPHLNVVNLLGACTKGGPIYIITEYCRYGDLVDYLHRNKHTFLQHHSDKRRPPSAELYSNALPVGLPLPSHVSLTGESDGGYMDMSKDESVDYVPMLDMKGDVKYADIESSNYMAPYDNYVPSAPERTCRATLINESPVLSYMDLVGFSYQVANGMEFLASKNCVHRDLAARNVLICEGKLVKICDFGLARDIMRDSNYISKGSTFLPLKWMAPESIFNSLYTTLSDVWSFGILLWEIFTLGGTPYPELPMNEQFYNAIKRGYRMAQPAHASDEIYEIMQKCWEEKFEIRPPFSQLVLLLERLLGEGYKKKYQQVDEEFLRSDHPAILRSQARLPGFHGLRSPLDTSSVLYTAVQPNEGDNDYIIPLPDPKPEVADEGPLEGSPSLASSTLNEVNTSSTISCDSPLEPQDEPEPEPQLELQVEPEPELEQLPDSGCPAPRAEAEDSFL
From the text: 2. Preparation of Test Substance
4. Analysis of Measurement Results

[3] = tested on: pulmonary arterial smooth muscle cells; assay: Suppression of proliferation of pulmonary arterial smooth muscle cells (PDGF-BB stimulation, BrdU); type: cell-based; conditions: PASMC, read-out: Human normal PASMC proliferation suppression (PDGF stimulation_IC50)
Procedure, shortened: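 Healthy human pulmonary arterial smooth muscle cells, serum-starved a day in 0.1% FBS medium, were treated with compound at final 3 to 10,000 nM plus human PDGF-BB (final 10 ng/mL) and BrdU. After 1 day of culture, BrdU uptake was measured with an anti-BrdU antibody.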

[4] = molecular target: TEL-KIT fusion gene transfected cells (Ba/F3); assay: Suppression of proliferation of TEL-KIT fusion gene transfected Ba/F3 cells; conditions: read-out: KIT/BaF3 proliferation inhibition (IC50); TEL-KIT expressing Ba/F3 cells, 72 hours, final concentration 0.1 to 10,000 nM;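 also: viable cells quantified via formazan from tetrazolium reduction, inhibition scaled with 0.1% DMSO control as 0% and medium-only blank as 100%, IC50 from two-parameter logistic fit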
Sequence of TEL-KIT fusion gene transfected cells (Ba/F3) (P10721 26-976 limits assumed, change not shown): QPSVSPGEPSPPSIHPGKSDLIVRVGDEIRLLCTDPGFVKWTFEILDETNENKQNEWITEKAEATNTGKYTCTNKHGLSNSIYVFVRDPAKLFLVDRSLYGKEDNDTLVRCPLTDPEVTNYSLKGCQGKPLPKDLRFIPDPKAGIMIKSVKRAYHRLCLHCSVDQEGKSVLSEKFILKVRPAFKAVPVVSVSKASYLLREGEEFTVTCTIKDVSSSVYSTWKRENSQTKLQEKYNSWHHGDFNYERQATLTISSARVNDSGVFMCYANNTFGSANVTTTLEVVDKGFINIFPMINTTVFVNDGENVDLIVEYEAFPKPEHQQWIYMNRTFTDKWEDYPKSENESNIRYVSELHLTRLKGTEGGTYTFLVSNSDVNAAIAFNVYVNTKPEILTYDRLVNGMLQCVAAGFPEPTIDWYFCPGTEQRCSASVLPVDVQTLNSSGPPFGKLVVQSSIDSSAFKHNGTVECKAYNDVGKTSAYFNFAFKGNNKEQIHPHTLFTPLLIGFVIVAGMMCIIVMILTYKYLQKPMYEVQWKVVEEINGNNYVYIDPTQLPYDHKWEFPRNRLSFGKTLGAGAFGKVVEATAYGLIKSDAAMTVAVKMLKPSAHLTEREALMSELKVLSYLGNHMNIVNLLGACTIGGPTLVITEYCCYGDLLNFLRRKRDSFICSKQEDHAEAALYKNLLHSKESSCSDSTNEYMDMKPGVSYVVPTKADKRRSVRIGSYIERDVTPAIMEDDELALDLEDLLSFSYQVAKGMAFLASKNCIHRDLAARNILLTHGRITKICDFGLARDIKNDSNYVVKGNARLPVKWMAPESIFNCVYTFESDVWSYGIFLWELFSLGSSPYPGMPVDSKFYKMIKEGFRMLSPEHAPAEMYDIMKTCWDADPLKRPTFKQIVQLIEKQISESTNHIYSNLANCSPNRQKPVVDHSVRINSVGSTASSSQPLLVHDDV
From the text: Fabrication of TEL-PDGFRβ and TEL-KIT Fusion Gene Transfected Cells
Subsequently, the vectors for gene transfection were introduced using a transfection reagent (FuGENE6, Promega Corporation) into packaging cells derived from a human fetal kidney cell line, PLAT-E, in the logarithmic growth phase. Since the culture supernatant of PLAT-E after the gene transfection contained virus particles for gene transfection, it was collected and used as a medium for gene transfection. The medium for gene transfection was added to a plate coated with RetroNectin and incubated, and the virus particles were allowed to adhere to the plate. Thereafter, the mouse pro-B cell line Ba/F3 in the logarithmic growth phase was seeded onto the plate and infected with the virus to fabricate cells that proliferate in a PDGFRβ or KIT dependent manner.
The test substance was prepared with dimethyl sulfoxide (DMSO) to 10 mM and diluted with DMSO so as to reach a concentration of 0.0001 to 3 mM. Furthermore, it was diluted by 100 times with distilled water.
Measurement of Suppression Action Against Proliferation of TEL-PDGFRβ or TEL-KIT Expressing Cells
The day after TEL-PDGFRβ and TEL-KIT expressing cells were seeded onto 96 well plates, the prepared test substance solution was added thereto with a final concentration being 0.1 to 10,000 nM. After 72 hours, the viable cell count was measured using the amount of formazan generated from the reduction of a tetrazolium salt compound by the mitochondrial dehydrogenase of viable cells as an indicator.
Based on the amount of formazan in each condition, the suppression rate against cell proliferation was calculated when the amounts of formazan in the negative control (0.1% DMSO solution) and Blank (medium only) were defined as 0% and 100%, respectively. Subsequently, a nonlinear regression analysis with a two parameter logistic model for the log dose and suppression rate against cell proliferation was carried out using the SAS system (SAS Institute Inc.) to estimate the IC50 value.

[5] = 24 h, healthy human derived pulmonary arterial smooth muscle cells, human PDGF-BB 10 ng/mL stimulation, BrdU uptake after 1 day, test substance final concentration 3 to 10,000 nM
[6] = human PDGF-BB 10 ng/mL, BrdU uptake, final concentration 3 to 10,000 nM

Sequence of PDGFR-β (P09619 33-1106): as the sequence (P09619 33-1106 limits assumed, change not shown) above

SMILES | pIC50 [1] | pIC50 [2] | pIC50 [3, 5] | pIC50 [4] | pIC50 [3, 6]
Cc1ccc(C(=O)N[C@H]2CCCC[C@@H]2O)cc1N[C@@H](C)c1cncc(-c2ccccc2)c1 [Example 84, N-[(1S,2S)-2-hydroxycyclohexyl]-4-methyl-3-{[(1S)-1-(5-phenylpyridin-3-yl)ethyl]amino}benzamide] | 7.72 | 7.30 | 6.80 | 6.30 | –
Cc1ccc(C(=O)N[C@H]2CCCC[C@@H]2O)cc1NC(=O)c1cncc(-c2ccc(C(F)(F)F)cc2F)c1 [Example 36, 5-[2-fluoro-4-(trifluoromethyl)phenyl]-N-(5-{[(1S,2S)-2-hydroxycyclohexyl]carbamoyl}-2-methylphenyl)pyridine-3-carboxamide] | 6.89 | 7.60 | 7.04 | 5.46 | –
O=C(Nc1cc(C(=O)N[C@H]2CCCC[C@@H]2O)ccc1Cl)c1cncc(OCC2CC2)c1 [Example 44, N-(2-chloro-5-{[(1S,2S)-2-hydroxycyclohexyl]carbamoyl}phenyl)-5-(cyclopropylmethoxy)pyridine-3-carboxamide] | 6.72 | 7.68 | 6.85 | 6.03 | –
Cc1ccc(C(=O)N[C@H]2CCCC[C@@H]2O)cc1NC(=O)c1cncc(-c2cccc(F)c2F)c1 [Example 30, 5-(2,3-difluorophenyl)-N-(5-{[(1S,2S)-2-hydroxycyclohexyl]carbamoyl}-2-methylphenyl)pyridine-3-carboxamide] | 7.36 | 7.66 | 7.28 | 5.89 | –
Cc1ccc(C(=O)N[C@H]2CCCC[C@@H]2O)cc1NCc1cncc(C#CC2CC2)c1 [Example 94, 3-({[5-(cyclopropylethynyl)pyridin-3-yl]methyl}amino)-N-[(1S,2S)-2-hydroxycyclohexyl]-4-methylbenzamide] | 7.31 | 8.00 | 7.05 | 6.59 | –
Cc1ccc(C(=O)N[C@H]2CCCC[C@@H]2O)cc1N[C@@H](C)c1cncc(-c2ncccn2)c1 [Example 88, N-[(1S,2S)-2-hydroxycyclohexyl]-4-methyl-3-({(1S)-1-[5-(pyrimidin-2-yl)pyridin-3-yl]ethyl}amino)benzamide] | 6.64 | 7.37 | 6.68 | 5.22 | –
O=C(N[C@H]1CCCC[C@@H]1O)c1ccc(Cl)c(C#Cc2cncc(-c3ccccc3)c2)c1 [Example 58, 4-chloro-N-[(1S,2S)-2-hydroxycyclohexyl]-3-[(5-phenylpyridin-3-yl)ethynyl]benzamide] | 7.92 | 6.96 | 7.24 | 5.74 | –
Cc1ccc(C(=O)N[C@H]2CCCC[C@@H]2O)cc1NCc1cncc(-c2ccccc2)c1 [Example 92, N-[(1S,2S)-2-hydroxycyclohexyl]-4-methyl-3-{[(5-phenylpyridin-3-yl)methyl]amino}benzamide] | 7.34 | 7.70 | 7.18 | 5.85 | –
Cc1ccc(C(=O)N[C@@H](CO)[C@@H](O)c2ccccc2)cc1CNc1cncc(-c2ccccc2)n1 [Example 156, N-[(1S,2S)-1,3-dihydroxy-1-phenylpropan-2-yl]-4-methyl-3-{[(6-phenylpyrazin-2-yl)amino]methyl}benzamide] | 7.60 | 7.66 | 7.10 | < 5.00 | –
Cc1ccc(C(=O)N[C@H]2CCCC[C@@H]2O)cc1NC(=O)c1cnc(CC2CC2)s1 [Example 3, 2-(cyclopropylmethyl)-N-(5-{[(1S,2S)-2-hydroxycyclohexyl]carbamoyl}-2-methylphenyl)-1,3-thiazole-5-carboxamide] | 7.09 | 8.85 | – | 6.21 | 7.52
Cc1ccc(C(=O)N[C@H]2CCCC[C@@H]2O)cc1Nc1ccnc(-c2cccnc2)n1 [Example 78, N-[(1S,2S)-2-hydroxycyclohexyl]-4-methyl-3-{[2-(pyridin-3-yl)pyrimidin-4-yl]amino}benzamide] | 7.29 | 7.57 | 6.82 | 6.24 | –
Cc1ccc(C(=O)N[C@H]2CCCC[C@@H]2O)cc1NC(=O)c1cncc(N(C)C2CC2)c1 [Example 17, 5-[cyclopropyl(methyl)amino]-N-(5-{[(1S,2S)-2-hydroxycyclohexyl]carbamoyl}-2-methylphenyl)pyridine-3-carboxamide] | 7.38 | 8.00 | – | 6.10 | 6.89
Cc1ccc(C(=O)N[C@H]2CCCC[C@@H]2O)cc1NC(=O)c1cnc2sccn12 [Example 45, N-(5-{[(1S,2S)-2-hydroxycyclohexyl]carbamoyl}-2-methylphenyl)imidazo[2,1-b][1,3]thiazole-5-carboxamide] | 7.82 | 9.10 | 7.25 | 7.04 | –
Cc1ccc(C(=O)N[C@H]2CCCC[C@@H]2O)cc1OCc1cncc(-c2ncccn2)c1 [Example 166, N-[(1S,2S)-2-hydroxycyclohexyl]-4-methyl-3-{[5-(pyrimidin-2-yl)pyridin-3-yl]methoxy}benzamide] | 7.31 | 8.60 | 7.19 | 5.92 | –
C[C@H](Nc1cc(C(=O)N[C@H]2CCCC[C@@H]2O)ccc1Cl)c1cncc(-c2cccnc2)c1 [Example 90, 3-{[(1S)-1-([3,3′-bipyridin]-5-yl)ethyl]amino}-4-chloro-N-[(1S,2S)-2-hydroxycyclohexyl]benzamide] | 6.51 | 7.46 | 6.44 | 5.08 | –
Cc1ccc(C(=O)N[C@H]2CCCC[C@@H]2O)cc1C#Cc1cncc(-c2cnccn2)c1 [Example 63, N-[(1S,2S)-2-hydroxycyclohexyl]-4-methyl-3-{[5-(pyrazin-2-yl)pyridin-3-yl]ethynyl}benzamide] | 7.82 | 9.10 | 8.00 | 6.62 | –
Cc1ccc(C(=O)N[C@H]2CCCC[C@@H]2O)cc1NC(=O)c1cncc(-c2ccccc2F)c1 [Example 29, 5-(2-fluorophenyl)-N-(5-{[(1S,2S)-2-hydroxycyclohexyl]carbamoyl}-2-methylphenyl)pyridine-3-carboxamide] | 7.46 | 8.12 | 6.89 | 6.54 | –
Cc1c(F)cc(C(=O)N[C@H]2CCCC[C@@H]2O)cc1NC(=O)c1cncc(OCC2CC2)c1 [Example 46, 5-(cyclopropylmethoxy)-N-(3-fluoro-5-{[(1S,2S)-2-hydroxycyclohexyl]carbamoyl}-2-methylphenyl)pyridine-3-carboxamide] | 7.11 | 7.77 | 6.43 | 6.39 | –
Cc1ccc(C(=O)N[C@H]2CCCC[C@@H]2O)cc1NC(=O)c1cncc(-c2ccccc2OC(F)(F)F)c1 [Example 35, N-(5-{[(1S,2S)-2-hydroxycyclohexyl]carbamoyl}-2-methylphenyl)-5-[2-(trifluoromethoxy)phenyl]pyridine-3-carboxamide] | 6.80 | 7.77 | 6.49 | 5.66 | –
Cc1ccc(C(=O)N[C@@H]2CCCC[C@H]2O)cc1CNc1cncc(-c2ncccn2)c1 [Example 149, N-[(1R,2R)-2-hydroxycyclohexyl]-4-methyl-3-({[5-(pyrimidin-2-yl)pyridin-3-yl]amino}methyl)benzamide] | 6.66 | 7.24 | 6.82 | 6.17 | –

— patent US12509424B2, “Compound and composition as PDGF receptor kinase inhibitor” (NIPPON SHINYAKU CO., LTD., priority 2019, dated 2025)
